Assay results from PubChem BioAssay AID2060490 (Molecular Pharmacology Branch, DTP, NCI, 2025).
pIC50: −log10 of the molar value.

Tested on: 885512-296-R-J2-PDC complex spheroid viability
Test: Anticancer human tumor 885512-296-R-J2-PDC patient-derived breast carcinoma cell line growth inhibition [GQUAD]
Conditions: for pIC50: curve of first compound; for viability, T/C: stronger effect = lower value
How it was run: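 Tumor cells were grown as complex spheroids with HUVEC endothelial cells and mesenchymal stem cells as stroma. G-quadruplex stabilizers were combined with targeted agents over half-log dilutions from near the clinical Cmax, or from 10 microM.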

[1] = second compound 0.0316 µM, first compound 0.0316 µM
[2] = second compound 0.0316 µM, first compound 0.1 µM
[3] = second compound 0.0316 µM, first compound 0.316 µM
[4] = second compound 0.0316 µM, first compound 1 µM
[5] = second compound 0.0316 µM, first compound 3.16 µM
[6] = second compound 0.0316 µM, first compound 10 µM
[7] = second compound 0.1 µM, first compound 0.0316 µM
[8] = second compound 0.1 µM, first compound 0.1 µM
[9] = second compound 0.1 µM, first compound 0.316 µM
[10] = second compound 0.1 µM, first compound 1 µM
[11] = second compound 0.1 µM, first compound 3.16 µM
[12] = second compound 0.1 µM, first compound 10 µM
[13] = second compound 0.316 µM, first compound 0.0316 µM
[14] = second compound 0.316 µM, first compound 0.1 µM
[15] = second compound 0.316 µM, first compound 0.316 µM
[16] = second compound 0.316 µM, first compound 1 µM
[17] = second compound 0.316 µM, first compound 3.16 µM
[18] = second compound 0.316 µM, first compound 10 µM
[19] = second compound 1 µM, first compound 0.0316 µM
[20] = second compound 1 µM, first compound 0.1 µM
[21] = second compound 1 µM, first compound 0.316 µM
[22] = second compound 1 µM, first compound 1 µM
[23] = second compound 1 µM, first compound 3.16 µM
[24] = second compound 1 µM, first compound 10 µM
[25] = second compound 3.16 µM, first compound 0.0316 µM
[26] = second compound 3.16 µM, first compound 0.1 µM
[27] = second compound 3.16 µM, first compound 0.316 µM
[28] = second compound 3.16 µM, first compound 1 µM
[29] = second compound 3.16 µM, first compound 3.16 µM
[30] = second compound 3.16 µM, first compound 10 µM
[31] = second compound 10 µM, first compound 0.0316 µM
[32] = second compound 10 µM, first compound 0.1 µM
[33] = second compound 10 µM, first compound 0.316 µM
[34] = second compound 10 µM, first compound 1 µM
[35] = second compound 10 µM, first compound 3.16 µM
[36] = second compound 10 µM, first compound 10 µM
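Further: spheroids exposed to the compounds for one week.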
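Wherever viability, T/C is given: percent of tumor spheroid viability relative to DMSO vehicle control wells.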

**Q.** With `CC1COCCN1c1cc(C2(O)CC3CCC(C2)O3)c2cnn(-c3ccn[nH]3)c2n1` (centres undefined) + Cc1cnc(CNC(=O)c2c(=O)c3ccc(N4CCCN(C)CC4)nc3n3c2sc2ccccc23)cn1 as the compound, how does the pIC50 (second compound 0.0316 µM) read?
**A.** > 7.50

**Q.** And the pIC50 (second compound 0.1 µM)?
**A.** > 7.50

**Q.** What about the pIC50 (second compound 0.316 µM) of the same compound?
**A.** > 7.50

**Q.** What about the pIC50 (second compound 1 µM) of the same compound?
**A.** > 7.50

**Q.** What about the pIC50 (second compound 3.16 µM) of the same compound?
**A.** > 7.50

**Q.** And the pIC50 (second compound 10 µM)?
**A.** > 7.50

**Q.** And the viability, T/C [1]?
**A.** 5.92%

**Q.** And the viability, T/C [2]?
**A.** 3.36%

**Q.** What about the viability, T/C [3] of the same compound?
**A.** 3.06%

**Q.** What about the viability, T/C [4] of the same compound?
**A.** 4.49%

**Q.** And the viability, T/C [5]?
**A.** 5.92%

**Q.** What about the viability, T/C [6] of the same compound?
**A.** 7.8%

**Q.** And the viability, T/C [7]?
**A.** 5.95%

**Q.** What about the viability, T/C [8] of the same compound?
**A.** 3.36%

**Q.** What about the viability, T/C [9] of the same compound?
**A.** 3.12%

**Q.** What about the viability, T/C [10] of the same compound?
**A.** 4.44%

**Q.** What about the viability, T/C [11] of the same compound?
**A.** 6.08%

**Q.** What about the viability, T/C [12] of the same compound?
**A.** 7%

**Q.** What about the viability, T/C [13] of the same compound?
**A.** 4.59%

**Q.** What about the viability, T/C [14] of the same compound?
**A.** 4.72%

**Q.** And the viability, T/C [15]?
**A.** 4.92%

**Q.** What about the viability, T/C [16] of the same compound?
**A.** 5.25%

**Q.** And the viability, T/C [17]?
**A.** 7.22%

**Q.** And the viability, T/C [18]?
**A.** 7.55%

**Q.** And the viability, T/C [19]?
**A.** 6.13%

**Q.** What about the viability, T/C [20] of the same compound?
**A.** 4.5%

**Q.** And the viability, T/C [21]?
**A.** 5.8%

**Q.** What about the viability, T/C [22] of the same compound?
**A.** 6.61%

**Q.** What about the viability, T/C [23] of the same compound?
**A.** 7.78%

**Q.** What about the viability, T/C [24] of the same compound?
**A.** 6.44%

**Q.** What about the viability, T/C [25] of the same compound?
**A.** 2.58%

**Q.** And the viability, T/C [26]?
**A.** 3.35%

**Q.** What about the viability, T/C [27] of the same compound?
**A.** 4.73%

**Q.** And the viability, T/C [28]?
**A.** 4.41%

**Q.** What about the viability, T/C [29] of the same compound?
**A.** 2.5%

**Q.** What about the viability, T/C [30] of the same compound?
**A.** 1.93%

**Q.** And the viability, T/C [31]?
**A.** 0.03%

**Q.** And the viability, T/C [32]?
**A.** 0.09%

**Q.** What about the viability, T/C [33] of the same compound?
**A.** 0.14%

**Q.** And the viability, T/C [34]?
**A.** 0.07%

**Q.** What about the viability, T/C [35] of the same compound?
**A.** 0.12%

**Q.** And the viability, T/C [36]?
**A.** 0.12%

**Q.** How did the pIC50 (second compound 0.0316 µM) turn out when `COc1cccc2c1C(=O)c1c(O)c3c(c(O)c1C2=O)CC(O)(C(=O)CO)CC3OC1CC(N)C(O)C(C)O1` (centres undefined) + Cc1[nH]c2ccc(F)cc2c1-c1nc2c3cccnc3c3ncccc3c2[nH]1 was run?
**A.** 7.05

**Q.** And the pIC50 (second compound 0.1 µM)?
**A.** 7.08

**Q.** What about the pIC50 (second compound 0.316 µM) of the same compound?
**A.** 7.09

**Q.** And the pIC50 (second compound 1 µM)?
**A.** 7.24

**Q.** What about the pIC50 (second compound 3.16 µM) of the same compound?
**A.** > 7.50

**Q.** What about the pIC50 (second compound 10 µM) of the same compound?
**A.** > 7.50

**Q.** What about the viability, T/C [1] of the same compound?
**A.** 96.2%

**Q.** And the viability, T/C [2]?
**A.** 41.8%

**Q.** What about the viability, T/C [3] of the same compound?
**A.** 25.3%

**Q.** And the viability, T/C [4]?
**A.** 9.04%

**Q.** What about the viability, T/C [5] of the same compound?
**A.** 0.5%

**Q.** And the viability, T/C [6]?
**A.** 2.46%

**Q.** And the viability, T/C [7]?
**A.** 101%

**Q.** And the viability, T/C [8]?
**A.** 36.4%

**Q.** What about the viability, T/C [9] of the same compound?
**A.** 23.9%

**Q.** What about the viability, T/C [10] of the same compound?
**A.** 10.9%

**Q.** What about the viability, T/C [11] of the same compound?
**A.** 0.36%

**Q.** And the viability, T/C [12]?
**A.** 3.62%

**Q.** What about the viability, T/C [13] of the same compound?
**A.** 85.5%

**Q.** What about the viability, T/C [14] of the same compound?
**A.** 39.4%

**Q.** And the viability, T/C [15]?
**A.** 25.1%

**Q.** What about the viability, T/C [16] of the same compound?
**A.** 8.52%

**Q.** And the viability, T/C [17]?
**A.** 0.35%

**Q.** And the viability, T/C [18]?
**A.** 2.33%

**Q.** And the viability, T/C [19]?
**A.** 67.7%

**Q.** What about the viability, T/C [20] of the same compound?
**A.** 32%

**Q.** What about the viability, T/C [21] of the same compound?
**A.** 20%

**Q.** And the viability, T/C [22]?
**A.** 7.54%

**Q.** What about the viability, T/C [23] of the same compound?
**A.** 0.39%

**Q.** What about the viability, T/C [24] of the same compound?
**A.** 2.51%

**Q.** What about the viability, T/C [25] of the same compound?
**A.** 17.2%

**Q.** And the viability, T/C [26]?
**A.** 12.3%

**Q.** And the viability, T/C [27]?
**A.** 4.34%

**Q.** And the viability, T/C [28]?
**A.** 2.57%

**Q.** What about the viability, T/C [29] of the same compound?
**A.** 0.34%

**Q.** And the viability, T/C [30]?
**A.** 1.2%

**Q.** And the viability, T/C [31]?
**A.** 1.64%

**Q.** And the viability, T/C [32]?
**A.** 1.76%

**Q.** What about the viability, T/C [33] of the same compound?
**A.** 2.1%

**Q.** And the viability, T/C [34]?
**A.** 1.15%

**Q.** What about the viability, T/C [35] of the same compound?
**A.** 0.87%

**Q.** What about the viability, T/C [36] of the same compound?
**A.** 0.81%
